Measured values: US8178077B2, “Drug development target protein and target gene, and method of screening” (Reverse Proteomics Research Institute Co., Ltd., priority 2004, dated 2012)

Tests used:
[1] = target: T1, FLJ20589 clone-derived protein (human hippocalcin-like protein 1, VILIP-3) (Homo sapiens, UniProt P37235); assay: SEC/MS interaction analysis (size exclusion spin column and mass analysis) with FLJ20589 clone-derived protein; type: binding
T1 construct: A human full-length cDNA clone was expressed as a protein with an N-terminal His tag; His tag (N); made in house; host or cells: Escherichia coli BL21star(DE3)pLysS (pDEST17 Gateway expression plasmid)

[2] = target: T2, FLJ39196 clone-derived protein (human neurocalcin δ) (Homo sapiens, UniProt P61601); assay: SEC/MS interaction analysis (size exclusion spin column and mass analysis) with FLJ39196 clone-derived protein; type: binding
T2 construct: A human full-length cDNA clone was expressed as a protein with an N-terminal His tag; His tag (N); made in house; host or cells: Escherichia coli BL21star(DE3)pLysS (pDEST17 Gateway expression plasmid)
Source text: To analyze the interactions between commonly used drugs and proteins expressed from human full-length cDNA clones while keeping both the proteins and the compounds in non-modified, non-immobilized state, size exclusion chromatography (SEC) and mass analysis were used in combination (FIGS. 1, 2). The specific procedures are shown below.
The compound-protein mixture prepared in step 1 was subjected to chromatography using an SEC column, the compound and the protein were separated by SEC, and the compound that interacted with the bound compound or protein contained in the protein fraction was analyzed using a mass analyzer.
Protein concentrations were measured using BCA Protein Assay (PIERCE), in consideration of the purity calculated by SDS-PAGE.
Mass analysis was performed using LCQ DECA XP (Thermoelectron) or Q-TOFmicro (Micromass), equipped with an ESI probe. The LC pump used was Agilent 1100 (Yokogawa Analytical Systems), and the autosampler used was HTC-PAL (CTC Analytics) equipped with a cooling stacker.
In the SEC method using 384-well spin columns, Unifilter 100 (Whatman), packed with 10 μL (dry volume) of Bio-Gel P6 (BIO-RAD) and swollen with milliQ water, was used as the SEC column. 13.3 μL of a protein-free reference standard or a 25 μM protein standard and 0.7 μL of a multiplied liquid comprising 25 μM of each pharmaceutical compound (5% DMSO aqueous solution) were mixed; 9 μL of this mixture was aliquoted into the SEC spin columns. The SEC spin column was mounted on an acetonitrile-aliquoted 384-well U-bottom plate and centrifuged; the SEC spin column filtrate, which is a protein fraction, was retrieved in 50% acetonitrile. The protein precipitate produced by the acetonitrile was removed via centrifugation and filtration for deproteinization; the resulting filtrate was concentrated by centrifugation and re-dissolved in 10 μL of 50% methanol to obtain a mass analysis sample. The mobile phase supplied to the mass analyzer was 0.1% formic acid/50% methanol solution in the positive ion mode, and 0.1% ammonia/50% methanol solution in the negative ion mode; these mobile phases were used at a flow rate of 40 μL/min. 2-μL of mass analysis samples were injected using an autosampler at 2-minute intervals; the mass spectral intensity of the compound was measured to obtain the spectral intensity of the pharmaceutical compound contained in the SEC spin column filtrate (protein fraction eluted from SEC).

For `Fc1ccc(C(c2ccc(F)cc2)N2CCN(C/C=C/c3ccccc3)CC2)cc1` [Flunarizine], the “spectral intensity of the compound in the SEC spin column filtrate (protein fraction)” value (“spectral intensity … (protein fraction)” for short) ([1]; protein 0 μM (protein-free reference), compound 1 μM) was 188851, the “spectral intensity … (protein fraction)” value ([1]; protein 0 μM (protein-free reference), compound 10 μM) was 200579 and the “spectral intensity … (protein fraction)” value ([1]; protein 0 μM (protein-free reference), compound 100 μM) was 198757. For the same compound, the “spectral intensity … (protein fraction)” value ([1]; protein 0 μM (protein-free reference), compound 250 μM) was 253795, the “spectral intensity … (protein fraction)” value ([1]; protein 23.75 μM, compound 1 μM) was 501950 and the “spectral intensity … (protein fraction)” value ([1]; protein 23.75 μM, compound 10 μM) was 137693. The “spectral intensity … (protein fraction)” value ([1]; protein 23.75 μM, compound 100 μM) was 181386, the “spectral intensity … (protein fraction)” value ([1]; protein 23.75 μM, compound 250 μM) was 308575 and the “spectral intensity … (protein fraction)” value ([1]; protein 47.5 μM, compound 1 μM) was 58869. The “spectral intensity … (protein fraction)” value ([1]; protein 47.5 μM, compound 10 μM) was 178128, the “spectral intensity … (protein fraction)” value ([1]; protein 47.5 μM, compound 100 μM) was 2683794 and the “spectral intensity … (protein fraction)” value ([1]; protein 47.5 μM, compound 250 μM) was 9317332.
With Dihydroergotoxine mesylate the “spectral intensity … (protein fraction)” value ([2]; measured mass range m/z 564.1-565.1, protein 0 μM (protein-free reference), compound 1 μM) was 25150786, the “spectral intensity … (protein fraction)” value ([2]; measured mass range m/z 564.1-565.1, protein 0 μM (protein-free reference), compound 10 μM) was 29311635 and the “spectral intensity … (protein fraction)” value ([2]; measured mass range m/z 564.1-565.1, protein 0 μM (protein-free reference), compound 100 μM) was 76261189. The “spectral intensity … (protein fraction)” value ([2]; measured mass range m/z 564.1-565.1, protein 0 μM (protein-free reference), compound 250 μM) was 326128137, the “spectral intensity … (protein fraction)” value ([2]; measured mass range m/z 564.1-565.1, protein 23.75 μM, compound 1 μM) was 19680823 and the “spectral intensity … (protein fraction)” value ([2]; measured mass range m/z 564.1-565.1, protein 23.75 μM, compound 10 μM) was 36914079. The “spectral intensity … (protein fraction)” value ([2]; measured mass range m/z 564.1-565.1, protein 23.75 μM, compound 100 μM) was 177369018, the “spectral intensity … (protein fraction)” value ([2]; measured mass range m/z 564.1-565.1, protein 23.75 μM, compound 250 μM) was 232715490 and the “spectral intensity … (protein fraction)” value ([2]; measured mass range m/z 564.1-565.1, protein 47.5 μM, compound 1 μM) was 16556794. The “spectral intensity … (protein fraction)” value ([2]; measured mass range m/z 564.1-565.1, protein 47.5 μM, compound 10 μM) was 45033425, the “spectral intensity … (protein fraction)” value ([2]; measured mass range m/z 564.1-565.1, protein 47.5 μM, compound 100 μM) was 221983211 and the “spectral intensity … (protein fraction)” value ([2]; measured mass range m/z 564.1-565.1, protein 47.5 μM, compound 250 μM) was 530510575. The “spectral intensity … (protein fraction)” value ([2]; measured mass range m/z 577.9-578.9, protein 0 μM (protein-free reference), compound 1 μM) was 17036968, the “spectral intensity … (protein fraction)” value ([2]; measured mass range m/z 577.9-578.9, protein 0 μM (protein-free reference), compound 10 μM) was 25343556 and the “spectral intensity … (protein fraction)” value ([2]; measured mass range m/z 577.9-578.9, protein 0 μM (protein-free reference), compound 100 μM) was 62894601. The “spectral intensity … (protein fraction)” value ([2]; measured mass range m/z 577.9-578.9, protein 0 μM (protein-free reference), compound 250 μM) was 234871658, the “spectral intensity … (protein fraction)” value ([2]; measured mass range m/z 577.9-578.9, protein 23.75 μM, compound 1 μM) was 25890358 and the “spectral intensity … (protein fraction)” value ([2]; measured mass range m/z 577.9-578.9, protein 23.75 μM, compound 100 μM) was 421344902. For the same compound, the “spectral intensity … (protein fraction)” value ([2]; measured mass range m/z 577.9-578.9, protein 23.75 μM, compound 250 μM) was 408003600, the “spectral intensity … (protein fraction)” value ([2]; measured mass range m/z 577.9-578.9, protein 47.5 μM, compound 1 μM) was 31988946 and the “spectral intensity … (protein fraction)” value ([2]; measured mass range m/z 577.9-578.9, protein 47.5 μM, compound 10 μM) was 207450982. For the same compound, the “spectral intensity … (protein fraction)” value ([2]; measured mass range m/z 577.9-578.9, protein 47.5 μM, compound 100 μM) was 908698063, the “spectral intensity … (protein fraction)” value ([2]; measured mass range m/z 577.9-578.9, protein 47.5 μM, compound 250 μM) was 1265975868 and the “spectral intensity … (protein fraction)” value ([2]; measured mass range m/z 611.7-612.7, protein 0 μM (protein-free reference), compound 1 μM) was 18486648. The “spectral intensity … (protein fraction)” value ([2]; measured mass range m/z 611.7-612.7, protein 0 μM (protein-free reference), compound 10 μM) was 24024699, the “spectral intensity … (protein fraction)” value ([2]; measured mass range m/z 611.7-612.7, protein 0 μM (protein-free reference), compound 100 μM) was 30737736 and the “spectral intensity … (protein fraction)” value ([2]; measured mass range m/z 611.7-612.7, protein 0 μM (protein-free reference), compound 250 μM) was 58888872. For the same compound, the “spectral intensity … (protein fraction)” value ([2]; measured mass range m/z 611.7-612.7, protein 23.75 μM, compound 1 μM) was 35126832, the “spectral intensity … (protein fraction)” value ([2]; measured mass range m/z 611.7-612.7, protein 23.75 μM, compound 10 μM) was 106708813 and the “spectral intensity … (protein fraction)” value ([2]; measured mass range m/z 611.7-612.7, protein 23.75 μM, compound 100 μM) was 397014202. The “spectral intensity … (protein fraction)” value ([2]; measured mass range m/z 611.7-612.7, protein 23.75 μM, compound 250 μM) was 267260198, the “spectral intensity … (protein fraction)” value ([2]; measured mass range m/z 611.7-612.7, protein 47.5 μM, compound 1 μM) was 40595551 and the “spectral intensity … (protein fraction)” value ([2]; measured mass range m/z 611.7-612.7, protein 47.5 μM, compound 10 μM) was 194133547. The “spectral intensity … (protein fraction)” value ([2]; measured mass range m/z 611.7-612.7, protein 47.5 μM, compound 100 μM) was 931095764 and the “spectral intensity … (protein fraction)” value ([2]; measured mass range m/z 611.7-612.7, protein 47.5 μM, compound 250 μM) was 1112309560.
